Test results reported in ChEMBL document CHEMBL1150791, “blaVIM-2-harboring integrons isolated in India, Russia, and the United States arise from an ancestral class 1 integron predating the formation of the 3' conserved sequence” (2007).

The molecules below were run on Pseudomonas aeruginosa (assay: Antibacterial activity against blaVIM2-harboring integrons containing Pseudomonas aeruginosa 42 isolate from ventilator-associated pneumonia patient).
Format: functional

Q: `NCC[C@H](O)C(=O)N[C@@H]1C[C@H](N)[C@@H](O[C@H]2O[C@H](CN)[C@@H](O)[C@H](O)[C@H]2O)[C@H](O)[C@H]1O[C@H]1O[C@H](CO)[C@@H](O)[C@H](N)[C@H]1O` [AMIKACIN] was tested. Which Activity did it give?
A: 8 µg/mL

Q: How did the Activity turn out when `C[C@H]1[C@H](NC(=O)/C(=N\OC(C)(C)C(=O)O)c2csc(N)n2)C(=O)N1S(=O)(=O)O` [AZTREONAM] was run?
A: >256 µg/mL

Q: Which Activity does the source give for `CO/N=C(\C(=O)N[C@@H]1C(=O)N2C(C(=O)[O-])=C(C[N+]3(C)CCCC3)CS[C@H]12)c1csc(N)n1` [CEFEPIME] here?
A: >256 µg/mL

Q: Which Activity does the source give for `CC(C)(O/N=C(\C(=O)N[C@@H]1C(=O)N2C(C(=O)[O-])=C(C[n+]3ccccc3)CS[C@H]12)c1csc(N)n1)C(=O)O` [CEFTAZIDIME] here?
A: 96 µg/mL

Q: `O=C(O)c1cn(C2CC2)c2cc(N3CCNCC3)c(F)cc2c1=O` [CIPROFLOXACIN] was tested. Which Activity did it give?
A: >32 µg/mL

Q: How did the Activity turn out when `C[C@@H](O)[C@H]1C(=O)N2C(C(=O)O)=C(SCCNC=N)C[C@H]12` [IMIPENEM ANHYDROUS] was run?
A: >32 µg/mL

Q: For `C[C@@H](O)[C@H]1C(=O)N2C(C(=O)O)=C(S[C@@H]3CN[C@H](C(=O)N(C)C)C3)[C@H](C)[C@H]12` [MEROPENEM], which Activity is on record?
A: >32 µg/mL

Q: `CCN1CCN(C(=O)N[C@@H](C(=O)N[C@@H]2C(=O)N3[C@@H]2SC(C)(C)[C@@H]3C(=O)O)c2ccccc2)C(=O)C1=O` [PIPERACILLIN] was tested. Which Activity did it give?
A: >256 µg/mL

Q: For COLISTIN, which Activity is on record?
A: 1 µg/mL
